{"source": "patent US20240131027A1", "about": "“PHARMACEUTICAL COMPOSITION COMPRISING NOVEL SD911 COMPOUND AS ACTIVE INGREDIENT FOR PREVENTION OR TREATMENT OF TRANSPLANT REJECTION” (THE CATHOLIC UNIVERSITY OF KOREA INDUSTRY-ACADEMIC …, priority 2021, published 2024)", "key": {"[1]": {"system": "T cell subtypes (Th1, Th2, Th17, Treg)", "assay": "T cell subtype analysis by flow cytometry of spleen immune cells in skin transplantation model", "assay_type": "in vivo", "settings": "200 μg/mice, spleen after 5 days, compared to control group", "source_text": "(§1) In order to confirm A therapeutic effect of SD911 of the present invention on transplantation rejection, an allogenic skin transplantation animal model was used. Specifically, as the allogenic skin transplantation animal model, the tail skins of male donor […] mice (Orient Bio Inc.) were exfoliated and transplanted onto the back skins of male recipient BALB/c mice (Orient Bio Inc.). One day before transplant, the recipient mice were divided into two groups, a control group (Saline group) administered intraperitoneally with physiological saline, and an experimental group (SD911 group) administered with SD911 at a concentration of 200 μg/mice.\nSome of the recipient mice that had undergone the skin transplant were humanely sacrificed after 5 days, the spleens were extracted, and immune cells were isolated from the spleens. In order to analyze T cell subtypes in the isolated immune cells, flow cytometry was performed, and to identify pro-inflammatory T cells, the number of CD4+, IFN+, IL4+ and IL17+ positive cells was analyzed. In addition, regulatory T cells (Treg) were identified as CD4+CD25+Foxp3+ positive cells."}, "[2]": {"system": "IL-17", "assay": "IL-17 positive cell infiltration in renal tissue by immunohistochemical staining, kidney transplantation rejection model", "assay_type": "in vivo", "settings": "300 μg/mice, group injected with PBMCs of patients with kidney transplantation rejection, FIGS. 10A and 10B", "experimental": "(§2) In order to produce a kidney transplantation rejection model, peripheral blood mononuclear cells (PBMCs) derived from transplantation rejection patients (kidney transplantation rejection patients) were intravascularly injected at a cell concentration of 5×10^6/mice, and then after 3 weeks, engraftment of transplantation rejection patient cells in the blood was confirmed, and a kidney transplantation rejection model was constructed. As a control group, normal human PBMCs were injected (FIG. 6).\n(§3) At 3 weeks after PBMC administration to the kidney transplantation rejection model prepared in Example 4-1, the mice were treated with physiological saline (vehicle) and SD911 (300 μg/mice) and sacrificed at 4 weeks and then the kidneys of the mice were extracted.\n(§4) Immunohistochemical staining was performed to confirm whether IL-17, an inflammatory cytokine, has been infiltrated into the renal tissue extracted in Example 4-2. The extracted tissue was fixed with formalin, and then embedded in paraffin to generate slices with a thickness of 5 μm. In order to observe immune cells in the tissue, immunohistochemical analysis was performed by reacting with a human IL-17 antibody on the slice slide."}, "[3]": {"system": "CD4+T (CD4+), subtype of human immune cells", "assay": "CD4 positive cell infiltration in renal tissue by immunohistochemical staining, kidney transplantation rejection model", "assay_type": "in vivo", "settings": "300 μg/mice, group injected with PBMCs of patients with kidney transplantation rejection, FIGS. 9A and 9B", "experimental": "as §2, §3\nas §4, with “CD4+T (CD4+), subtype of human immune cells,” for “IL-17, an inflammatory cytokine,”, “in” for “into”, “CD4” for “IL-17”"}, "[4]": {"system": "kidney organoids", "assay": "Flow cytometry of nephron marker double positive cells in cytokine-treated kidney organoids", "assay_type": "cell-based, human", "settings": "SD911 50 μg/mL; TNF-α and INFγ treated kidney organoids; FIGS. 5A to 5F", "experimental": "(§5) WTC-11 cells, standard normal human induced pluripotent stem cells (iPSC) were differentiated into kidney organoids and treated with IFNγ, a cytokine known to induce transplantation rejection to construct an in vitro rejection model increasing human leukocyte antigen (HLA). Thereafter, the constructed kidney organoids were treated with 50 μM of SD911.\nIn the kidney organoids prepared in Example 3-1, when treated with the cytokines TNF-α and INFγ and when treated with SD911 at a concentration of 50 μg/mL, changes in cell patterns were analyzed by flow cytometry. Specifically, the patterns of nephron markers PODXL, LTL, ECAD and double positive cells in kidney organoids were analyzed."}, "[5]": {"system": "kidney transplantation rejection model", "assay": "Cell infiltration and kidney damage (H&E) in kidney transplantation rejection model", "assay_type": "in vivo", "settings": "300 μg/mice, compared with the vehicle group, FIGS. 8A and 8B", "experimental": "as §2, with “6). At 3 weeks after PBMC administration to the kidney transplantation rejection model prepared in Example 4-1, the mice were treated with physiological saline (vehicle) and SD911 (300 μg/mice) and sacrificed at 4 weeks and then the kidneys of the mice were extracted.” for “6).”"}, "[6]": {"system": "allogenic skin transplantation animal model", "assay": "Skin transplant viability in allogenic skin transplantation animal model", "assay_type": "in vivo", "settings": "200 μg/mice", "source_text": "as §1\nThe skin changes of the control group or the experimental group (SD911 group) treated with SD911 at a concentration of 200 μg/mice were observed daily, and the viability was calculated by calculating the rejection when scab formation or skin atrophy of 70% or more occurred on the transplanted skin. A drug administration schedule was illustrated in FIG. 2A."}, "[7]": {"system": "immune cells isolated from the spleens of normal C57/BL6 mice", "assay": "Suppression of SDF1-induced migration of spleen immune cells in trans wells", "assay_type": "cell-based", "settings": "SD911 20 μM; SDF1 20 ng/ml in lower compartment; FIGS. 1A and 1B", "experimental": "The present inventors screened a novel compound SD911 by using activity inhibition analysis of inflammatory cytokines in immune cells of a sphingosin 1-phosphate lyase (SPL) inhibitor, and tried to confirm an immune cell migration inhibitory effect of the screened SD911. Specifically, single cells (immune cells) were isolated from the spleens of normal C57/BL6 mice, and the isolated immune cells were cultured in […] trans wells (upper compartment). For migration of the cultured immune cells, stromal cell-derived factor 1 (SDF1) was treated at a concentration of 20 ng/ml to stimulate the lower compartment. The immune cells moved to the lower compartment by stromal cell-derived factor 1 (SDF1), and at this time, whether the migration was inhibited by SD911 was analyzed."}, "[8]": {"system": "human leukocyte antigen (HLA)", "assay": "HLA inhibition in IFNγ-treated kidney organoids (in vitro rejection model)", "assay_type": "cell-based", "settings": "50 μM SD911; kidney organoids from WTC-11 iPSC treated with IFNγ; FIG. 4", "experimental": "as §5"}}, "data": [{"smiles": "C[C@@H]1CN(c2nnc(Oc3ccccc3)c3ccccc23)CCN1c1ccc(C#N)cn1", "note": "[SD911, 6-((R)-2-methyl-4-(1-phenoxyphthalazin-4-yl)piperazin-1-yl)pyridine-3-carbonitrile]", "values": [{"measurement": "number of Th1 cells", "setting": "[1]; FIG. 3A", "value": "significantly decreased"}, {"measurement": "number of Th2 cells", "setting": "[1]; FIG. 3B", "value": "significantly decreased"}, {"measurement": "number of Th17 cells", "setting": "[1]; FIG. 3C", "value": "significantly decreased"}, {"measurement": "Treg (CD4+CD25+Foxp3+ positive cells)", "setting": "[1]; FIG. 3D", "value": "increased"}, {"measurement": "infiltration of IL-17-positive cells", "setting": "[2]", "value": "significantly reduced"}, {"measurement": "infiltration of CD4-positive cells", "setting": "[3]", "value": "significantly reduced"}, {"measurement": "positive cell ratio of the nephron marker (PODXL, LTL, ECAD double positive cells)", "setting": "[4]", "value": "significantly decreased"}, {"measurement": "kidney damage", "setting": "[5]", "value": "suppressed"}, {"measurement": "human PBMC infiltration", "setting": "[5]; glomerulus", "value": "suppressed"}, {"measurement": "viability of the transplanted skin", "setting": "[6]; compared to control (Saline) group, FIG. 2B", "value": "significantly increased"}, {"measurement": "survival time of the transplanted skin", "setting": "[6]; compared to control group, FIG. 2C", "value": "significantly increased"}, {"measurement": "migration of immune cells induced by SDF1", "setting": "[7]", "value": "blocked"}, {"measurement": "HLA increased by IFNγ", "setting": "[8]", "value": "suppressed"}]}]}
